Experiments:
[1] = test system: ChR2-ESC-derived neurons; experiment: Patch-clamp recording of excitatory postsynaptic currents in ChR2-ESC-derived neurons; format: cell-based, mouse; settings: differentiation day 28
From the text: (§1) We first verified that ChR2-ESCs were capable of neural lineage differentiation, using a retinoic acid-based neural differentiation protocol (FIG. 8c). At differentiation day 8, 40±10% of the cells expressed the neural lineage marker nestin. By day 14, a dense network of β-3-tubulin-positive ESC-derived immature neurons could be detected, followed by expression of the mature neuronal cytoskeletal protein MAP2 and the vesicular glutamate transporter II (vGlutll).
Neuronal differentiation was performed as previously described, with modifications. ESCs were plated on matrigel-coated dishes in embryoid body stage in complete ESC medium (see above). […]
For acute slice electrophysiological experiments, 1 week post cell transplantation, 250 μm cortical slices were prepared in ice-cold cutting buffer (64 mM NaCl, 25 mM NaHCO3, 10 mM glucose, 120 mM sucrose, 2.5 mM KCl, 1.25 mM NaH2PO4, 0.5 mM CaCl2 and 7 mM MgCl2, equilibrated with 95% O2/5% CO2) using a vibratome (VT 1000 S; Leica). […] Images were recorded with a CCD camera (Retiga Exi, Qimaging) by Qimaging software. […] Membrane currents were measured with the patch-clamp technique in whole-cell mode using Axon Multiclamp 700B (Axon Instruments) amplifiers. […] Through a 20× objective lens, power density of the blue light was 8-12 mW/mm^2, measured by power meter (Newport). […]

[2] = test system: ChR2-ESCs; experiment: Retinoic acid-based neural differentiation of ChR2-ESCs, nestin expression; format: cell-based, mouse; settings: differentiation day 8; retinoic acid-based neural differentiation protocol
From the text: as §1
Neuronal differentiation was performed as previously described, with modifications. ESCs were plated on matrigel-coated dishes in embryoid body stage in complete ESC medium (see above). 24 hours later, medium was changed to ESC medium lacking LIF and including 5 μM retinoic acid, and changed every second day for 5 days. As a second differentiation step, cells were incubated with neural expansion medium for 7 days consisting of N2 supplement, SHH (50 ng/ml), FGF-8b (100 ng/ml), bFGF (10 ng/ml) and ascorbic acid (200 μM, Sigma) in DMEM/F12 and changed every two days. Thereafter cells were cultured in N2 and ascorbic acid in DMEM/F12.
Cells were fixed with 4% paraformaldehyde in PBS for 30 min at room temperature. Fixation was stopped by washing cells three times with 0.1M glycine/PBS. Cells were permeabilized and blocked (4% BSA/0.4% saponin/PBS) for 30 min and incubated in primary antibody solution at 4° C. overnight. […]

SMILES | block of excitatory postsynaptic currents [1] | cells expressing the neural lineage marker nestin [2]
N#Cc1cc2[nH]c(=O)c(=O)[nH]c2cc1[N+](=O)[O-] [CNQX] | blocked | –
NC(CCCP(=O)(O)O)C(=O)O [D-AP5] | blocked | –
CC1=C(/C=C/C(C)=C/C=C/C(C)=C/C(=O)O)C(C)(C)CCC1 [RA, retinoic acid] | – | 40±10%
